Data reported in patent US20220016102A1, “ER PROTEIN REGULATORS AND USE THEREOF” (ShanghaiTech University, priority 2018, published 2022).
pIC50: −log10 of the molar value.

Experiments:
Format in all cases: cell-based
ER protein [1] = molecular target: T1, ER protein (Homo sapiens, UniProt P03372); assay: Western blotting analysis of ER protein degradation in T47D cell line; set-up: western blotting detection of the level of intracellular ER protein; endogenous in cells; host or cells: T47D; conditions: degradation of ER protein, T47D cells, drug treatment for 16 hours, Western blot gray values vs DMSO control; read-out: DC50 (nM)/T47Dcell line
T1 sequence (P03372 1-595): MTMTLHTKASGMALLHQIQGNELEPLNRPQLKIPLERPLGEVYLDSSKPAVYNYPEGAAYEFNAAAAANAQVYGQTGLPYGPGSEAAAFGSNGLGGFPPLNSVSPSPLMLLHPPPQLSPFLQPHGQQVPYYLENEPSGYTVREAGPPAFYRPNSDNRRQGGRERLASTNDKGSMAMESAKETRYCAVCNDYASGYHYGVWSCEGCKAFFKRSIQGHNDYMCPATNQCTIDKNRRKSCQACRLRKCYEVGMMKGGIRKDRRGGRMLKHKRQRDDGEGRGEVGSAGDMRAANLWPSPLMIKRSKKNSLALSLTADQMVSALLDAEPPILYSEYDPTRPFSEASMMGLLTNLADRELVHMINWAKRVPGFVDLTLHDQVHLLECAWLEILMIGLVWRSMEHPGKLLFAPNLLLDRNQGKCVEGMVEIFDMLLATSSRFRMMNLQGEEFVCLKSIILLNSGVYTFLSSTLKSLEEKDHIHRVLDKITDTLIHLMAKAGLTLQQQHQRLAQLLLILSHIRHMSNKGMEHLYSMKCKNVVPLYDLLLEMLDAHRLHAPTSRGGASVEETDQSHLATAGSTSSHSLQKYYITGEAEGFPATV
Summary of the method: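 T47D cells seeded at 1.5×10^5 cells/mL, adhered 24 h, then treated with compound; ER protein level read by Western blot band gray value versus DMSO control. DC50 taken as concentration giving half the control gray value, read from bands or from a fitted concentration–gray value curve.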

MCF-7 cell line = assay: Assay for determination of inhibition of MCF-7 cell proliferation (CCK-8); conditions: Homo sapiens, MCF7, 96 h; MCF-7 cells, 4 days, CCK-8, FIG. 3
Procedure: MCF-7 were cultured in ncubator with 5% CO2 at 37° C. Complete medium was EMEM supplemented with 10% FBS, 100 U/mL Penicillin and Streptomycin, and 0.77 μg/mL recombinant human insulin.
10 μL CCK-8 reagent was added to the test well without adding the drugs, and after 4 h the O.D.value of the test well was recorded as the initial cell level. • After 4 days, 10 μL CCK-8 reagent was added, and the O.D.values was measured, and inhibition level was calculated.

ER protein [2] = molecular target: T1, ER protein; assay: Western blotting analysis of ER protein degradation in MCF-7 cell line; set-up: western blotting detection of the level of intracellular ER protein; endogenous in cells; conditions: MCF-7 cells, Western blot gray values vs DMSO control
Procedure: MCF-7 were cultured in ncubator with 5% CO2 at 37° C. Complete medium was EMEM supplemented with 10% FBS, 100 U/mL Penicillin and Streptomycin, and 0.77 μg/mL recombinant human insulin. […]
DC50 value (the drug concentration required for degrading proteins by 50%, abbreviated as DC50) reads method: comparing the gray values of the Western blotting bands for the drug treatment with the gray values of the Western blotting band for the DMSO control, and reading the drug concentration range corresponding to the gray value of the Western blotting bands for the drug treatment which is equal to half of the gray value of the Western blotting band for the DMSO control.
DC50 value could also be calculated as follows: using software ImageJ to quantify the gray values of the Western blotting bands for the drug treatment, fitting the relationship curve between drug concentrations and gray values, and from the fitted curve, calculating the drug concentration corresponding to half of the gray value of the Western blotting band for the DMSO control.

Row | DC50 (ER protein [1]) | pIC50 (MCF-7 cell line) | DC50 (ER protein [2]) | Compound
1 | < 10 nM | 9.12 | < 10 nM | Cc1ncsc1-c1ccc(CNC(=O)[C@@H]2C[C@@H](O)CN2C(=O)[C@@H](NC(=O)CCCCCCCC(=O)NCCOc2ccc(C(=C(CCCl)c3ccccc3)c3ccc(O)cc3)cc2)C(C)(C)C)cc1 [SIAIS208035, N1-(2-(4-(4-chloro-1-(4-hydroxyphenyl)-2-phenylbut-1-en-1-yl)phenoxy)ethyl)-N9-((S)-1-((2S,4R)-4-hydroxy-2-((4-(4-methylthiazol-5-yl)benzyl)carbamoyl)pyrrolidin-1-yl)-3,3-dimethyl-1-oxobutan-2-yl)nonanediamide]
2 | < 1 nM | 9.12 |  | CCC(=C(c1ccc(O)cc1)c1ccc(OCCNC(=O)CCCCCCCCC(=O)N[C@H](C(=O)N2C[C@H](O)C[C@H]2C(=O)NCc2ccc(-c3scnc3C)cc2)C(C)(C)C)cc1)c1ccc(O)cc1 [SIAIS208168, N1-(2-(4-(1,2-bis(4-hydroxyphenyl)but-1-en-1-yl)phenoxy)ethyl)-N10-((S)-1-((2S,4R)-4-hydroxy-2-((4-(4-methylthiazol-5-yl)benzyl)carbamoyl)pyrrolidin-1-yl)-3,3-dimethyl-1-oxobutan-2-yl)decanediamide]
3 | < 10 nM | 8.44 |  | CCC(=C(c1ccc(O)cc1)c1ccc(OCCNC(=O)CCOCCOCCC(=O)N[C@H](C(=O)N2C[C@H](O)C[C@H]2C(=O)NCc2ccc(-c3scnc3C)cc2)C(C)(C)C)cc1)c1ccc(O)cc1 [SIAIS208173, (2S,4R)-1-((S)-16-(4-(1,2-bis(4-hydroxyphenyl)but-1-en-1-yl)phenoxy)-2-(tert-butyl)-4,13-dioxo-7,10-dioxa-3,14-diazahexadecanoyl)-4-hydroxy-N-(4-(4-methylthiazol-5-yl)benzyl)pyrrolidine-2-carboxamide]
4 | < 10 nM | 8.38 |  | Cc1ncsc1-c1ccc(CNC(=O)[C@@H]2C[C@@H](O)CN2C(=O)[C@@H](NC(=O)CCCCCCC(=O)N2CCN(CCOc3ccc(C(=C(CCCl)c4ccccc4)c4ccc(O)cc4)cc3)CC2)C(C)(C)C)cc1 [SIAIS251045, (2S,4R)-1-((S)-2-(8-(4-(2-(4-(4-chloro-1-(4-hydroxyphenyl)-2-phenylbut-1-en-1-yl)phenoxy)ethyl)piperazin-1-yl)-8-oxooctanamido)-3,3-dimethylbutanoyl)-4-hydroxy-N-(4-(4-methylthiazol-5-yl)benzyl)pyrrolidine-2-carboxamide]
5 |  | 6.06 |  | CN(C)CCOc1ccc(/C(=C(/CCCl)c2ccccc2)c2ccccc2)cc1 [Toremifene, reference compound]
